{"source": "patent US12534748B2", "about": "“Engineered beta-subunit of tryptophan synthase for production of non-canonical amino acids” (California Institute of Technology, priority 2015, dated 2026)", "key": {"[1]": {"target": "T1, Thermotoga maritima TrpB variant TmTrpB^triple (P19G, I69V, T292S), SEQ ID NO: 34 (Thermotoga maritima, UniProt P50909, I69V/P19G/T292S)", "T1 sequence (P50909 with tags, fused parts or gaps P19G/I69V/T292S)": "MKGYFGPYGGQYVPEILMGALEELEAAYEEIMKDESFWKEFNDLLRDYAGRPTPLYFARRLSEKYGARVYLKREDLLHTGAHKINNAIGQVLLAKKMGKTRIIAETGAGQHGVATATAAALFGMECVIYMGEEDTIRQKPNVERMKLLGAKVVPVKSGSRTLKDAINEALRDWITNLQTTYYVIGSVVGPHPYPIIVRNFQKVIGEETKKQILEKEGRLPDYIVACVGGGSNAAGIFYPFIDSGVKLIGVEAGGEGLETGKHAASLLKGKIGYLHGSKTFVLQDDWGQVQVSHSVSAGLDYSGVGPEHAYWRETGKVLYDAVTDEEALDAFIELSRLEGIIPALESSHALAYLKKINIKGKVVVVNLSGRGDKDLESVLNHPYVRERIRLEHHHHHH", "assay": "Tryptophan formation from L-serine and indole, kinetics of TmTrpB^triple", "type": "biochemical", "description": "Kinetics and UV-Vis Spectroscopy. Data were collected between 550 and 250 nm on a UV1800 Shimadzu spectrophotometer (Shimadzu) using 0.25-20 μM of enzyme in 200 mM potassium phosphate (pH 8.0) in a quartz cuvette. Samples were incubated at 75° C. for >3 min to ensure a stable temperature was reached. PfTrpB activity (kcat) was measured by monitoring tryptophan formation at 290 nm using Δe290=1.89 mM^−1·cm^−1.\nCloning, expression, and purification of the different orthologs. The genes encoding AfTrpB (UNIPROT ID O28672), TmTrpB (UNIPROT ID P50909) and EcTrpB (UNIPROT ID P0A879) were obtained from IDT and cloned into pET22(b)+ using Gibson Assembly. Protein expression was carried out in E. coli BL21 E. cloni Express cells (Lucigen) by inoculating 10-mL Terrific Broth (with 100 μg/mL ampicillin (TBamp)) with a single colony and incubated over night at 37° C. and 250 rpm. These overnight cultures were used to scale up to 500-mL TBamp expression cultures, which were grown by shaking at 250 rpm and 37° C. for ˜3 h or until an OD600 of 0.8 was reached. […]\nThe next homolog, TmTrpB, was examined. […] The variants without the T292S mutation lacked this probative absorbance peak, but the decrease at 428 nm and concomitant increase at 350 nm are consistent with a similar, though less pronounced activation."}, "[2]": {"system": "Thermotoga maritima TrpB, wild type (literature)", "conditions": "kinetics measured at 80° C., cited from earlier work"}}, "data": [{"smiles": "c1ccc2[nH]ccc2c1", "note": "[indole]", "values": [{"measurement": "kcat", "setting": "[1]; 75° C.", "result": 9.8, "unit": "s⁻¹"}, {"measurement": "increase in kcat", "setting": "[1]; with respect to wild type", "result": 8, "unit": "fold"}, {"measurement": "kcat", "setting": "[2]", "result": 4.2, "unit": "s⁻¹"}, {"measurement": "Km", "setting": "[2]; read-out: KM indole", "result": 40, "unit": "µM"}]}]}
